The results in this text go back to patent publication US20090018134A1, “Compounds - 945” (AstraZeneca AB, priority 2007, published 2009).

Experiment [1] deals with T1, mTOR (Homo sapiens, UniProt P42345).
T1 construct: FLAG; made in house
Description: In Vitro mTOR Kinase Assay (Echo), Test (a)(ii). It is filed as biochemical. Put shortly: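 Inhibition expressed as IC50 from an AlphaScreen read-out: phospho-T389 p70 S6K antibody plus streptavidin donor/protein A acceptor beads, left overnight in the dark. The kinase reaction ran 2 h at room temperature, then was stopped with EDTA. Enzyme: FLAG-purified mTOR 1362-2549 fragment from stable HEK293 cells.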

In experiment [2] the target is T1, mTOR. Nature of the experiment: mTOR Kinase Assay (Echo). It is filed as biochemical.
Where [3] appears, read: table of enzyme assay Test (a)(ii), read-out: Test (a)(ii) IC50.
[4] abbreviates: read-out: mTOR Kinase Assay (Echo).

T1 sequence (P42345 1362-2549): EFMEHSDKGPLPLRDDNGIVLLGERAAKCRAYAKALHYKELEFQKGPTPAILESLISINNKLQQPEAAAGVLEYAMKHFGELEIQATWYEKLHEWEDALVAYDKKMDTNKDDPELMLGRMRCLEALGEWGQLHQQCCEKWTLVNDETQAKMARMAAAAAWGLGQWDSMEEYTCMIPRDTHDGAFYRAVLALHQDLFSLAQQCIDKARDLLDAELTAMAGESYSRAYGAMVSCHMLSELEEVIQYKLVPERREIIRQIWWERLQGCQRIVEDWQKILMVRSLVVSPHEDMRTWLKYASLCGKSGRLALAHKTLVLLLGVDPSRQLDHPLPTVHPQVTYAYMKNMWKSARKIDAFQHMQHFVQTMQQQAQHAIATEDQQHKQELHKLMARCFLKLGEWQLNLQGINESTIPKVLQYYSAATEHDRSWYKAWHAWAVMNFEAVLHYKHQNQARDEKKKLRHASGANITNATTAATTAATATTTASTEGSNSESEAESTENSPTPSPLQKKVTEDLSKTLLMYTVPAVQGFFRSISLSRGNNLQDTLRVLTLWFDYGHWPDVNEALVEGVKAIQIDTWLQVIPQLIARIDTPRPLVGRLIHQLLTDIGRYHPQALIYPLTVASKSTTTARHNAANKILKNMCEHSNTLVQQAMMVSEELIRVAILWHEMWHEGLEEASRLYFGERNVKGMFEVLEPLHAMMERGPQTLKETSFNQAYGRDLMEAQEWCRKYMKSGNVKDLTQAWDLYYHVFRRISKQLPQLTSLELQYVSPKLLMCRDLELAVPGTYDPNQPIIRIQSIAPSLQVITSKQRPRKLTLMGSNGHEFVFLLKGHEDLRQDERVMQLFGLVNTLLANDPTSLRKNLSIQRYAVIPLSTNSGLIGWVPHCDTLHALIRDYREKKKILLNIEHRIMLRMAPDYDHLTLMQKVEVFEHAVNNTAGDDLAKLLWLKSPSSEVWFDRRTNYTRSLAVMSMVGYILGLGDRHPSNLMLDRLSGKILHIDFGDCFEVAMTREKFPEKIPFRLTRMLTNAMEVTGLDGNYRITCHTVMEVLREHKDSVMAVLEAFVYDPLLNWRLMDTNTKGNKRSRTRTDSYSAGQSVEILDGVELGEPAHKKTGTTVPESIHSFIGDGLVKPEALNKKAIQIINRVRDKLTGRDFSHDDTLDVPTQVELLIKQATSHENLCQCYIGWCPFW

Regarding `Cc1cnc(NC(=O)Nc2ccc(-c3nc(N4CCOC[C@@H]4C)cc(C4(S(C)(=O)=O)CC4)n3)cc2)cn1` [Example 36az, 3-[4-[4-[(3S)-3-methylmorpholin-4-yl]-6-(1-methylsulfonylcyclopropyl)pyri-midin-2-yl]phenyl]-1-(5-methylpyrazin-2-yl)urea], the results for the IC50 in experiment [1] (setting [3]) and in experiment [2] were 1.05 nM and 1.49 nM, respectively.
For the compound `O=C(Nc1ccc(-c2nc(N3CCOCC3)cc(C3(S(=O)(=O)c4ccc(F)cc4)CC3)n2)cc1)NC1CC1` [Example 36al, 3-cyclopropyl-1-[4-[4-[1-(4-fluorophenyl)sulfonylcyclopropyl]-6-morpholin-4-ylpyrimidin-2-yl]phenyl]urea], the results for the IC50 in experiment [1] (setting [3]) and in experiment [2] were 16.1 nM and 18.7 nM, respectively.
Taken in the same sequence, the figures for `C[C@H]1COCCN1c1cc(C2(S(=O)(=O)c3ccccc3)CCC2)nc(-c2ccc(NC(=O)NC3CC3)cc2)n1` [Example 36bs, 1-[4-[4-[1-(benzenesulfonyl)cyclobutyl]-6-[(3S)-3-methylmorpholin-4-yl]pyrimidin-2-yl]phenyl]-3-cyclopropylurea] were 2.64 nM and 1.61 nM.
Turning to `C[C@H]1COCCN1c1cc(C2(S(=O)(=O)c3ncc[nH]3)CC2)nc(-c2ccc(NC(=O)NC3CC3)cc2)n1` [Example 40a, 3-cyclopropyl-1-[4-[4-[1-(1H-imidazol-2-ylsulfonyl)cyclopropyl]-6-[(3S)-3-methylmorpholin-4-yl]pyrimidin-2-yl]phenyl]urea], the IC50 was found to be 2.21 nM in experiment [1] (setting [3]) and 6.49 nM in experiment [2].
The like results for `C[C@H]1COCCN1c1cc(C2(S(=O)(=O)C(C)(C)C)CC2)nc(-c2ccc(NC(=O)NC3CCC3)cc2)n1` [Example 18a, 1-[4-[4-(1-tert-butylsulfonylcyclopropyl)-6-[(3S)-3-methylmorpholin-4-yl]pyrimidin-2-yl]phenyl]-3-cyclobutylurea] were, in that order, 7.14 nM and 9.67 nM.
For `C[C@H]1COCCN1c1cc(C2(S(=O)(=O)c3ccccn3)CC2)nc(-c2ccc(NC(=O)NCCO)cc2)n1` [Example 28g, 3-(2-hydroxyethyl)-1-[4-[4-[(3S)-3-methylmorpholin-4-yl]-6-(1-pyridin-2-ylsulfonylcyclopropyl)pyrimidin-2-yl]phenyl]urea], the IC50 in experiment [1] (setting [3]) stood at 1.18 nM; in experiment [2], 11.8 nM.
Taken in the same sequence, the figures for `C[C@H]1COCCN1c1cc(C2(S(C)(=O)=O)CC2)nc(-c2ccc(NC(=O)Nc3ncco3)cc2)n1` [Example 36ba, 1-[4-[4-[(3S)-3-methylmorpholin-4-yl]-6-(1-methylsulfonylcyclopropyl)pyri-midin-2-yl]phenyl]-3-(1,3-oxazol-2-yl)urea] were 1.67 nM and 3.12 nM.
Take `C[C@H]1COCCN1c1cc(C2(S(=O)(=O)c3ccccc3)CC2)nc(-c2ccc(NC(=O)NC3CC3)cc2)n1` [Example 36bc, 1-[4-[4-[1-(benzenesulfonyl)cyclopropyl]-6-[(3S)-3-methylmorpholin-4-yl]pyrimidin-2-yl]phenyl]-3-cyclopropylurea]: the figures for the IC50 in experiment [1] (setting [3]) and in experiment [2] were 2.85 nM and 2.05 nM, respectively.
With `C[C@H]1COCCN1c1cc(C2(S(=O)(=O)CCCO)CC2)nc(-c2ccc(NC(=S)NC3CC3)cc2)n1` [Example 37h, 3-cyclopropyl-1-[4-[4-[1-(3-hydroxypropylsulfonyl)cyclopro-pyl]-6-[(3S)-3-methylmorpholin-4-yl]pyrimidin-2-yl]phenyl]thiourea], the results for the IC50 in experiment [1] (setting [3]) and in experiment [2] were 19.8 nM and 13.2 nM, respectively.
As for `O=C(Nc1ccc(-c2nc(N3CCOCC3)cc(C3(S(=O)(=O)C4CC4)CC3)n2)cc1)NC1CCC1` [Example 13c, 3-cyclobutyl-1-[4-[4-(1-cyclopropylsulfonylcyclopropyl)-6-morpholin-4-ylpyrimidin-2-yl]phenyl]urea], the results for the IC50 in experiment [1] (setting [3]) and in experiment [2] were 1.73 nM and 2.4 nM, respectively.
Taken in the same sequence, the figures for `C[C@H]1COCCN1c1cc(C2(S(=O)(=O)c3ccccc3)CC2)nc(-c2ccc(NC(=S)NCCC#N)cc2)n1` [Example 37y, 1-[4-[4-[1-(benzenesulfonyl)cyclopropyl]-6-[(3S)-3-methylmorpholin-4-yl]pyrimidin-2-yl]phenyl]-3-(2-cyanoethyl)thiourea] were 6.86 nM and 5.53 nM.
For `C[C@H]1COCCN1c1cc(C2(S(=O)(=O)c3ccc(F)cn3)CC2)nc(-c2ccc(NC(=O)NC3CC3)cc2)n1` [Example 48a, 3-cyclopropyl-1-[4-[4-[1-(5-fluoropyridin-2-yl)sulfonylcyclopropyl]-6-[(3S)-3-methylmorpholin-4-yl]pyrimidin-2-yl]phenyl]urea], the IC50 was determined as 1.16 nM in experiment [1] (setting [3]) and 1.03 nM in experiment [2].
As for `C[C@H]1COCCN1c1cc(C2(S(=O)(=O)c3ccc(Cl)cc3)CC2)nc(-c2ccc(NC(=O)NCCN(C)C)cc2)n1` [Example 27g, 1-[4-[4-[1-(4-chlorophenyl)sulfonylcyclopropyl]-6-[(3S)-3-methylmorpholin-4-yl]pyrimidin-2-yl]phenyl]-3-(2-dimethylaminoethyl)urea], the IC50 in experiment [1] (setting [3]) came to 21.3 nM; in experiment [2], 18.9 nM.
The like results for `C[C@H]1COCCN1c1cc(C2(S(=O)(=O)c3ccccc3)CC2)nc(-c2ccc(NC(=S)NCc3ncc[nH]3)cc2)n1` [Example 37ac, 1-[4-[4-[1-(benzenesulfonyl)cyclopropyl]-6-[(3S)-3-methylmorpholin-4-yl]pyrimidin-2-yl]phenyl]-3-(1H-imidazol-2-ylmethyl)thiourea] were, in that order, 43.8 nM and 29.8 nM.
On to `CNC(=O)Nc1ccc(-c2nc(N3CCOC[C@@H]3C)cc(C3(S(=O)(=O)c4ccc(Cl)cc4)CC3)n2)cc1` [Example 27e, 1-[4-[4-[1-(4-chlorophenyl)sulfonylcyclopropyl]-6-[(3S)-3-methylmorpholin-4-yl]pyrimidin-2-yl]phenyl]-3-methylurea], for which the IC50 in experiment [1] (setting [3]) worked out at 0.351 nM; in experiment [2], 0.719 nM.
On to `Cc1csc(S(=O)(=O)C2(c3cc(N4CCOC[C@@H]4C)nc(-c4ccc(NC(=O)NC(C)C)cc4)n3)CC2)n1` [Example 25d, 1-[4-[4-[(3S)-3-methylmorpholin-4-yl]-6-[1-[(4-methyl-1,3-thiazol-2-yl)sulfonyl]cyclopropyl]pyrimidin-2-yl]phenyl]-3-propan-2-ylurea], for which the IC50 in experiment [1] (setting [3]) was determined as 1.52 nM; in experiment [2] it was 1.57 nM.
The like results for `CCNC(=O)Nc1ccc(-c2nc(N3CCOC[C@@H]3C)cc(C3(S(=O)(=O)c4ccc(Cl)cc4)CC3)n2)cc1` [Example 27f, 3-[4-[4-[1-(4-chlorophenyl)sulfonylcyclopropyl]-6-[(3S)-3-methylmorpholin-4-yl]pyrimidin-2-yl]phenyl]-1-ethylurea] were, in that order, 0.997 nM and 0.959 nM.
Taken in the same sequence, the figures for `C[C@H]1COCCN1c1cc(C2(S(=O)(=O)c3ccc(Cl)cc3)CC2)nc(-c2ccc(NC(=O)NC3CC3)cc2)n1` [Example 27, 1-[4-[4-[1-(4-Chlorophenyl)sulfonylcyclopropyl]-6-[(3S)-3-methylmorpholin-4-yl]pyrimidin-2-yl]phenyl]-3-cyclopropylurea] were 1.11 nM and 1.44 nM.
On to `CCNC(=O)Nc1ccc(-c2nc(N3CCOC[C@@H]3C)cc(C3(S(=O)(=O)c4ccccc4)CC3)n2)cc1` [Example 36bg, 3-[4-[4-[1-(benzenesulfonyl)cyclopropyl]-6-[(3S)-3-methylmorpholin-4-yl]pyrimidin-2-yl]phenyl]-1-ethylurea], for which the values for the IC50 in experiment [1] (setting [3]) and in experiment [2] were 1.89 nM and 0.922 nM, respectively.
For the compound `C[C@H]1COCCN1c1cc(C2(S(=O)(=O)c3ccccn3)CC2)nc(-c2ccc(NC(=O)NC3CC3)cc2)n1` [Example 28, 3-Cyclopropyl-1-[4-[4-[(3S)-3-methylmorpholin-4-yl]-6-(1-pyridin-2-ylsulfonylcyclopropyl)pyrimidin-2-yl]phenyl]urea], the IC50 in experiment [1] (setting [3]) stood at 1.87 nM; in experiment [2] it was 0.816 nM.
In the case of `C[C@H]1COCCN1c1cc(C2(S(=O)(=O)c3ccccn3)CCC2)nc(-c2ccc(NC(=O)Nc3cnn(C)c3)cc2)n1` [Example 36aj, 1-[4-[4-[(3S)-3-methylmorpholin-4-yl]-6-(1-pyridin-2-ylsulfonylcyclobutyl)pyrimidin-2-yl]phenyl]-3-(1-methylpyrazol-4-yl)urea], the IC50 in experiment [1] (setting [3]) was determined as 2.55 nM; in experiment [2], 2.58 nM.
Compound `C[C@H]1COCCN1c1cc(C2(S(=O)(=O)c3ccccn3)CC2)nc(-c2ccc(NC(=O)NC3(CO)CC3)cc2)n1` [Example 36cv, 3-[1-(hydroxymethyl)cyclopropyl]-1-[4-[4-[(3S)-3-methylmorpholin-4-yl]-6-(1-pyridin-2-ylsulfonylcyclopropyl)pyrimidin-2-yl]phenyl]urea] registered an IC50 in experiment [2] of 259 nM.
For `C[C@H]1COCCN1c1cc(C2(S(C)(=O)=O)CC2)nc(-c2ccc(NC(=O)NCCC#N)cc2)n1` [Example 2x, 3-(2-cyanoethyl)-1-[4-[4-[(3S)-3-methylmorpholin-4-yl]-6-(1-methylsulfonylcyclopropyl)pyrimidin-2-yl]phenyl]urea], in experiment [1] (setting [4]), the IC50 turned out to be 1.64 nM.
Consider `CNC(=O)Nc1ccc(-c2nc(N3CCOC[C@@H]3C)cc(C3(S(C)(=O)=O)CCC3)n2)cc1` [Example 5, 3-Methyl-1-[4-[4-[(3S)-3-methylmorpholin-4-yl]-6-(1-methylsulfonylcyclobutyl)pyrimidin-2-yl]phenyl]urea], for which, in experiment [1] (setting [4]), the IC50 was 0.802 nM.
In the case of `C[C@H]1COCCN1c1cc(C2(S(=O)(=O)c3ccccn3)CCCC2)nc(-c2ccc(NC(=O)NC3CC3)cc2)n1` [Example 36ab, 3-cyclopropyl-1-[4-[4-[(3S)-3-methylmorpholin-4-yl]-6-(1-pyridin-2-ylsulfonylcyclopentyl)pyrimidin-2-yl]phenyl]urea], the IC50 in experiment [1] (setting [3]) worked out at 11 nM.
For `Cc1nc(C)c(S(=O)(=O)C2(c3cc(N4CCOC[C@@H]4C)nc(-c4ccc(NC(=O)Nc5cnn(C)c5)cc4)n3)CC2)s1` [Example 78f, 1-[4-[4-[1-[(2,4-dimethyl-1,3-thiazol-5-yl)sulfonyl]cyclopropyl]-6-[(3S)-3-methylmorpholin-4-yl]pyrimidin-2-yl]phenyl]-3-(1-methylpyrazol-4-yl)urea], the IC50 in experiment [1] (setting [3]) was 29.1 nM.
